# Assay results reported in patent publication EP1914237B1 (priority 1999, dated 2001).
# Where two headings read alike, the source gives them in different places.
# Key:
# HCMV [1] = test system: HCMV
# [2] = test system: Humans with Steroid-Induced Osteoporosis; assay: Stimulation of bone formation in humans with steroid-induced osteoporosis; assay type: in vivo; conditions: oral 0.1 to 100 mg/kg/day, one month to one year; versus placebo
# [3] = test system: human lung fibroblast cells (MRC-5); assay: Cytotoxicity of test compounds in vitro in MRC-5 cells (visual estimate of cell number); assay type: cell-based
# Description: (§1) Cytotoxicity of test compounds in vitro: Subconfluent human lung fibroblast cells (MRC-5, American Type Culture Collection, Rockville, MD) in 24-well plates were treated with drugs diluted in E-MEM (Gibco BRL, Grand Island, NY) supplemented with 2% fetal bovine serum and antibiotics. After 5 days of incubation at 37°C, the cell monolayer was visually inspected under magnification and the concentration of drug which caused a 50% reduction in cell number was estimated.
# HSV-1 = assay: microbe, parasite or virus in culture; assay type: cell-based
# Humans with Osteoporosis = conditions: postmenopausal women, oral 0.1 to 100 mg/kg/day, two to three years; versus placebo
# vaccinia virus = assay: microbe, parasite or virus in culture; assay type: cell-based; conditions: Orthopoxvirus vaccinia, HFF; for IC50: read-out: IC50 against vaccinia virus; for EC50: read-out: Vaccinia EC50, µM
# cowpox virus = assay: microbe, parasite or virus in culture; assay type: cell-based; conditions: for IC50: read-out: IC50 in cowpox infected cells
# Vaccinia = assay: microbe, parasite or virus in culture; assay type: cell-based; conditions: read-out: EC50, µM Vaccinia
# Cowpox = assay: organism not typed; assay type: cell-based; conditions: read-out: EC50, µM Cowpox
# [4] = test system: Variola Major, Bangladesh; assay: organism not typed; assay type: cell-based; conditions: read-out: EC50, µM Variola Major, Bangladesh
# HFF Cells = conditions: human
# in vitro = conditions: monkey, vero cells
# CEM = assay: Cytotoxicity in CEM cells; conditions: read-out: CEM, CC50; Table 1; rapidly dividing cells
# HCMV [5] = assay: microbe, parasite or virus in culture; conditions: Human betaherpesvirus 5, MRC5
# [6] = Cytotoxicity of test compounds in vitro in MRC-5 cells (visual estimate of cell number); assay type: cell-based, human; conditions: human, mrc-5 cells; Table 2; MRC-5, 5 days at 37°C
# Description: as §1
# [7] = Cytotoxicity by the method of Hostetler et al. (HIV study); assay type: cell-based; conditions: human, ht4-6c cells; Table 6; cell line of the cytotoxicity test not stated
# HIV-1 [8] = test system: HIV-1
# HIV-1 [9] = assay: microbe, parasite or virus in culture; conditions: Human immunodeficiency virus 1
# Variola Major, Yamada = assay type: cell-based; conditions: Table 4; Vero cells; average of 3 determinations
# Variola Minor, Garcia = assay type: cell-based; conditions: Table 4; Vero cells; average of 3 determinations
# Vero cells = conditions: monkey
# Calvarial cells = assay: Dexamethasone-induced apoptosis in calvarial cells (trypan blue uptake); assay type: cell-based, neonatal C57BL/6J mice; conditions: pretreated 1 hour, then 6 hours with 10^-4 dexamethasone; p=<0.05
# MLO-Y4 osteocytic cells = conditions: pretreated 1 hour, then 6 hours with 10^-4 M dexamethasone; percentage of dead cells; p<0.05
# Ovariectomized Rats = conditions: subcutaneous 0 to 8 mg /kg/day, four to twelve weeks; versus ovariectomized controls
# [10] = Table 7, assessed as described in Example 17, 7200 min
# [11] = Cowpox virus, HFF, read-out: Cowpox, EC50, µM
# [12] = Table 1, against HCMV, CC50 in CEM cells
# [13] = Table 4, Vero cells, average of 3 determinations
molecule,measurement,setting,value
1-O-octadecyl-sn-glyceryl-3-adefovir [1-O-octadecyl-sn-glycero-3-ADV],EC50,HCMV [1],210 nM
1-O-octadecyloxypropyl-amino-olpadronate,bone density,[2],bone density is increased
same,fractures,[2],fractures are decreased
CCCCCCCCCCCCCCCCCCOCCOP(=O)(O)COC(CO)Cn1ccc(N)nc1=O (stereo not drawn) [1-O-octadecylethanediol-2-CDV],CC50,"[3]; Table 2, MRC-5, 5 days at 37°C",210 µM
same,CC50,[3]; [10],210 µM
same,EC50,HSV-1; read-out: EC50,0.002 µM
CCCCCCCCCCCCCCCCCCOCCOP1(=O)COC(Cn2ccc(N)nc2=O)CO1 (stereo not drawn) [1-O-octadecylethanediol-2-cCDV],CC50,"[3]; Table 2, MRC-5, 5 days at 37°C",320 µM
same,CC50,[3]; [10],320 µM
same,EC50,HSV-1; read-out: EC50,0.008 µM
same,EC50,HCMV [1],0.3 nM
"CCCCCCCCCCCCCCCCCCOCCCOP(=O)(O)C(O)(CCCN)P(=O)(O)O (stereo not drawn) [1-O-octadecyloxypropyl alendronate, 1-O-octadecyloxypropyl-alendronate]",fractures,Humans with Osteoporosis,fewer fractures
same,rate of reduction in bone density,Humans with Osteoporosis,a lesser rate of reduction in bone density than the placebo group
CCCCCCCCCCCCCCCCCCOCCCOP(=O)(O)CO[C@H](CO)Cn1ccc(N)nc1=O [1-O-octadecylpropanediol-3-CDV],CC50,"[3]; Table 2, MRC-5, 5 days at 37°C",32 µM
same,CC50,[3]; [10],32 µM
same,EC50,HSV-1; read-out: EC50,0.003 µM
same,EC50,HCMV [1],0.03 nM
CCCCCCCCCCCCCCCCCCOCCCOP1(=O)COC(Cn2ccc(N)nc2=O)CO1 (stereo not drawn) [1-O-octadecylpropanediol-3-cCDV],CC50,"[3]; Table 2, MRC-5, 5 days at 37°C",320 µM
same,CC50,[3]; [10],320 µM
same,EC50,HSV-1; read-out: EC50,0.33 µM
same,EC50,HCMV [1],0.3 nM
"Nc1ccn(C[C@@H](CO)OCP(=O)(O)O)c(=O)n1 [CDV, cidofovir]",CC50,"[3]; Table 2, MRC-5, 5 days at 37°C",> 1000 µM
same,CC50,[3]; [10],> 1000 µM
same,IC50,vaccinia virus,1.8 µM
same,EC50,vaccinia virus,1.8 µM
same,EC50,cowpox virus; [11],2.1 µM
same,IC50,"cowpox virus; Cowpox virus, HFF",2.1 µM
same,EC50,"Vaccinia; Orthopoxvirus vaccinia, Vero",2.2 µM
same,EC50,Cowpox; Vero,3.8 µM
same,EC50,[4]; Vero,100 µM
same,EC50,"HSV-1; Human alphaherpesvirus 1, MRC5",1.2 µM
same,Selectivity Index,HCMV [1]; [12],"1,900"
same,CC50,HFF Cells,89.8 µM
same,CC50,in vitro,> 100 µM
same,CC50,CEM,857 µM
same,EC50,HCMV [5],0.46 µM
CCCCCCCCCCCCCCCCOCCCOP(=O)(O)COCCn1cnc2c(N)ncnc21 [HDP-Adefovir],CC50 at 120 h,[6],6.5 µM
same,CC50,[7],6.5 µM
same,Selectivity Index,HCMV [1],65
same,"EC50,µM",HIV-1 [8],more active and selective than adefovir
same,Selectivity Index,HIV-1 [8],813
same,EC50,HCMV [5],0.1 µM
same,EC50,HIV-1 [9],0.008 µM
CCCCCCCCCCCCCCCCOCCCOP(=O)(O)CO[C@H](CO)Cn1ccc(N)nc1=O [HDP-CDV],CC50,"[3]; Table 2, MRC-5, 5 days at 37°C",10 µM
same,CC50,[3]; [10],10 µM
same,EC50,Vaccinia; [13],< 0.03 µM
same,EC50,Cowpox; [13],< 0.03 µM
same,EC50,[4]; [13],0.0015 µM
same,EC50,"Variola Major, Yamada",0.0015 µM
same,EC50,"Variola Minor, Garcia",0.0006 µM
same,EC50,HCMV [1],0.002 nM
same,CC50,Vero cells,> 0.1 µM
"CCCCCCCCCCCCCCCCOCCCOP(=O)(O)C(O)(CCCN)P(=O)(O)O (stereo not drawn) [HDP-alendronate, 1-O-hexadecylpropanediol-3-alendronate]",concentration at which the dexamethasone-induced increase in % dead cells is abolished,Calvarial cells,≥ 10^-8
same,concentration at which dexamethasone-induced apoptosis is inhibited,MLO-Y4 osteocytic cells,10^-8 to 10^-5 M
same,bone mass loss (ash weight of the femora),Ovariectomized Rats,less bone mass loss than the ovariectomized controls
"CCCCCCCCCCCCCCCCOCCCOP1(=O)COC(Cn2ccc(N)nc2=O)CO1 (stereo not drawn) [HDP-cCDV, 1-O-hexadecylpropanediol-3-cyclic CDV]",CC50,"[3]; Table 2, MRC-5, 5 days at 37°C",320 µM
same,CC50,[3]; [10],320 µM
same,EC50,"cowpox virus; Table 3, preliminary, HFF cells, CPE reduction, read-out: Cowpox, EC50",< 0.03 µM
same,IC50,cowpox virus; Table 3,< 0.03 µM
same,EC50,Cowpox; [13],< 0.03 µM
same,EC50,[4]; [13],> 0.01 µM
same,EC50,HSV-1; read-out: EC50,0.03 µM
same,EC50,HCMV [1],0.3 nM
same,EC50,HCMV [1]; read-out: HCMV EC50,0.5 nM
same,CC50,HFF Cells,> 100 µM
same,CC50,Vero cells,> 0.1 µM
same,CC50,CEM,30 µM
CCCCCCCCCCCCCCCCOP1(=O)COC(Cn2ccc(N)nc2=O)CO1 (stereo not drawn) [Hexadecyl-cCDV],CC50,"[3]; Table 2, MRC-5, 5 days at 37°C",6.5 µM
same,EC50,HCMV [1],40 nM
"Nc1ccn(C[C@H]2COP(=O)(O)CO2)c(=O)n1 [cCDV, cyclic cidofovir]",CC50,"[3]; Table 2, MRC-5, 5 days at 37°C",> 1000 µM
same,CC50,[3]; [10],> 1000 µM
same,IC50,vaccinia virus,0.97 µM
same,EC50,vaccinia virus,0.97 µM
same,EC50,cowpox virus; [11],0.72 µM
same,IC50,"cowpox virus; Cowpox virus, HFF",0.72 µM
same,EC50,[4]; Vero,100 µM
same,EC50,"HSV-1; Human alphaherpesvirus 1, MRC5",2.1 µM
same,Selectivity Index,HCMV [1]; [12],">2,100"
same,CC50,HFF Cells,> 100 µM
same,CC50,Vero cells,> 100 µM
same,CC50,CEM,> 1000 µM
same,EC50,HCMV [5],0.47 µM
